Measured values: PubChem BioAssay (NCI)
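Compound exposure: 48 hours, 5 concentrations, 96-well plates. The concentration for full growth arrest is given as TGI.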

Tests used:
Experiment in all cases: NCI-60 cell line screen, 48 h
SF-268 CNS = system: SF-268 CNS
T-47D breast = system: T-47D breast
MDA-N = system: MDA-N
HCC-2998 colon = system: HCC-2998 colon
RXF 393 renal = system: RXF 393 renal
LOX IMVI melanoma = system: LOX IMVI melanoma
UACC-62 melanoma = system: UACC-62 melanoma
NCI-H226 lung = system: NCI-H226 lung
EKVX NSCLC = system: EKVX NSCLC
A498 renal = system: A498 renal
HCT-15 colon = system: HCT-15 colon
MCF7 breast = system: MCF7 breast
NCI-H23 lung = system: NCI-H23 lung
OVCAR-8 ovarian = system: OVCAR-8 ovarian
HL-60(TB) leukemia = system: HL-60(TB) leukemia
NCI-H460 lung = system: NCI-H460 lung
786-0 renal = system: 786-0 renal
SN12C renal = system: SN12C renal
SW-620 colon = system: SW-620 colon
OVCAR-4 ovarian = system: OVCAR-4 ovarian
HOP-92 NSCLC = system: HOP-92 NSCLC
SF-295 CNS = system: SF-295 CNS
SK-MEL-28 melanoma = system: SK-MEL-28 melanoma
PC-3 prostate = system: PC-3 prostate
OVCAR-5 ovarian = system: OVCAR-5 ovarian
NCI-H522 lung = system: NCI-H522 lung
TK-10 renal = system: TK-10 renal
CCRF-CEM leukemia = system: CCRF-CEM leukemia
OVCAR-3 ovarian = system: OVCAR-3 ovarian
MDA-MB-435 = system: MDA-MB-435
HT29 colon = system: HT29 colon
U251 CNS = system: U251 CNS
RPMI-8226 leukemia = system: RPMI-8226 leukemia
SK-OV-3 ovarian = system: SK-OV-3 ovarian
SNB-75 CNS = system: SNB-75 CNS
SF-539 CNS = system: SF-539 CNS
ACHN renal = system: ACHN renal
SK-MEL-5 melanoma = system: SK-MEL-5 melanoma
HCT-116 colon = system: HCT-116 colon
DU-145 prostate = system: DU-145 prostate
MALME-3M melanoma = system: MALME-3M melanoma
SR leukemia = system: SR leukemia
KM12 colon = system: KM12 colon
MDA-MB-231 breast = system: MDA-MB-231 breast
NCI/ADR-RES ovarian = system: NCI/ADR-RES ovarian
HOP-62 NSCLC = system: HOP-62 NSCLC
BT-549 breast = system: BT-549 breast
CAKI-1 renal = system: CAKI-1 renal
COLO 205 colon = system: COLO 205 colon
UACC-257 melanoma = system: UACC-257 melanoma
K-562 leukemia = system: K-562 leukemia
HS 578T breast = system: HS 578T breast
IGROV1 ovarian = system: IGROV1 ovarian
SK-MEL-2 melanoma = system: SK-MEL-2 melanoma

Cc1c(-c2ccccc2)c(C#N)c2nnn(-c3ccc([N+](=O)[O-])cc3)c(=O)n12
TGI (SF-268 CNS): 45.3 µM | TGI (T-47D breast): > 100 µM | TGI (MDA-N): > 100 µM | TGI (HCC-2998 colon): > 100 µM | TGI (RXF 393 renal): 48.2 µM | TGI (LOX IMVI melanoma): 42.8 µM | TGI (UACC-62 melanoma): > 100 µM | TGI (NCI-H226 lung): 34 µM | TGI (EKVX NSCLC): 23.8 µM | TGI (A498 renal): 49 µM | TGI (HCT-15 colon): > 100 µM | TGI (MCF7 breast): 68.7 µM | TGI (NCI-H23 lung): 86.5 µM | TGI (OVCAR-8 ovarian): 23.6 µM | TGI (HL-60(TB) leukemia): 13.9 µM | TGI (NCI-H460 lung): > 100 µM | TGI (786-0 renal): 18.4 µM | TGI (SN12C renal): 69.2 µM | TGI (SW-620 colon): > 100 µM | TGI (OVCAR-4 ovarian): 38.2 µM | TGI (HOP-92 NSCLC): 45.4 µM | TGI (SF-295 CNS): 74.9 µM | TGI (SK-MEL-28 melanoma): > 100 µM | TGI (PC-3 prostate): 9.54 µM | TGI (OVCAR-5 ovarian): 95.4 µM | TGI (NCI-H522 lung): 33 µM | TGI (TK-10 renal): 90 µM | TGI (CCRF-CEM leukemia): 58.2 µM | TGI (OVCAR-3 ovarian): 39.8 µM | TGI (MDA-MB-435): > 100 µM | TGI (HT29 colon): 75.3 µM | TGI (U251 CNS): 21.5 µM | TGI (RPMI-8226 leukemia): > 100 µM | TGI (SK-OV-3 ovarian): > 100 µM | TGI (SNB-75 CNS): 44.1 µM | TGI (SF-539 CNS): 27 µM | TGI (ACHN renal): > 100 µM | TGI (SK-MEL-5 melanoma): > 100 µM | TGI (HCT-116 colon): > 100 µM | TGI (DU-145 prostate): 23.2 µM | TGI (MALME-3M melanoma): > 100 µM | TGI (SR leukemia): > 100 µM | TGI (KM12 colon): > 100 µM | TGI (MDA-MB-231 breast): 27.2 µM | TGI (NCI/ADR-RES ovarian): 64.7 µM | TGI (HOP-62 NSCLC): 45 µM | TGI (BT-549 breast): 69.9 µM | TGI (CAKI-1 renal): > 100 µM | TGI (COLO 205 colon): 40.6 µM | TGI (UACC-257 melanoma): > 100 µM | TGI (K-562 leukemia): > 100 µM | TGI (HS 578T breast): > 100 µM | TGI (IGROV1 ovarian): 25.3 µM | TGI (SK-MEL-2 melanoma): 28.6 µM
